Laboratory results as given in patent publication EP4806910A1, “TRI-AGONIST COMPOUND” (priority 2023, dated 2025).
pEC50: −log10 of the molar value.

Key:
GIPR = molecular target: T1, GIPR (Homo sapiens, UniProt P48546); experiment: GIP activity test (cAMP, chemiluminescence); assay type: cell-based
T1 construct: expressed in transfected cells; host or cells: CHO-K1
T1 sequence (P48546 22-466): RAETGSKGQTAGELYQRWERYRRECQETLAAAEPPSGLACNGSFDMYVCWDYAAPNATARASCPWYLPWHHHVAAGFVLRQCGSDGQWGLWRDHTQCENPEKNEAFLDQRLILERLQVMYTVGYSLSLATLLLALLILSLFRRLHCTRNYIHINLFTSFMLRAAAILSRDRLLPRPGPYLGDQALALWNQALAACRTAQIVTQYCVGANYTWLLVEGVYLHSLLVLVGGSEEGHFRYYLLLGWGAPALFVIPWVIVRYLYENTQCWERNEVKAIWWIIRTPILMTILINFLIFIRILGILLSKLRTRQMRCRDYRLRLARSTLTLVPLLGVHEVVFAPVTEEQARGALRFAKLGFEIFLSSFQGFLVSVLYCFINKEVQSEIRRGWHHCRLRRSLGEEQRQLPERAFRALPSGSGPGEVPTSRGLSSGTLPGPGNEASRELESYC
Protocol: (§1) Upon stimulation by a specific agonist, GIPR activates the intracellular adenylate cyclase signaling pathway, resulting in an increase in cAMP levels and ultimately leading to insulin production and secretion. A cell line stably transfected with GIPR was stimulated with test compounds, thereby rapidly increasing intracellular cAMP levels. The relative luminescence units (RLU) of cells stimulated at various concentrations were measured by a chemiluminescence method, and the EC50 value of the agonist was calculated accordingly. This activity assay method is currently a commonly used method for evaluating GIP receptor agonist activity both domestically and internationally. A CHO-K1 cell line stably expressing GIPR was used. The stable cells were stimulated with agonists at different concentrations, and the relative luminescence units after stimulation at each concentration were measured to calculate the EC50 value of the agonist.

GLP-1R = molecular target: T2, GLP-1R (Homo sapiens, UniProt P43220); experiment: GLP-1 activity test (cAMP, chemiluminescence); assay type: cell-based
T2 construct: expressed in transfected cells; host or cells: CHO-K1
T2 sequence (P43220 24-463, species assumed): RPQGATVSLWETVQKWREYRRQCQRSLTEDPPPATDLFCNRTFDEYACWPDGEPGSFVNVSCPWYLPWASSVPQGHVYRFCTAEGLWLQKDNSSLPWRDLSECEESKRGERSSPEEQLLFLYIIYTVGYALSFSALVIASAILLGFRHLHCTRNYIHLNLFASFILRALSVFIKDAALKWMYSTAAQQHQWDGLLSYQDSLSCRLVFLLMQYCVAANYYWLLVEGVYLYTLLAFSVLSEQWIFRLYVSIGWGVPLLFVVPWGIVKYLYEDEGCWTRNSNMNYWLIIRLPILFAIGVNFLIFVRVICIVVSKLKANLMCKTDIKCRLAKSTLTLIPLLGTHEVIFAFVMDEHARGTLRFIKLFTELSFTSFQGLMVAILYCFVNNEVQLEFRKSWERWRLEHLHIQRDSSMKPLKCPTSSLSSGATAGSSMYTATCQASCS
Protocol: as §1, with “GLP-1R” for “GIPR”, “test” for “assay”, “GLP-1” for “GIP”

[1] = Preliminary pharmacokinetic evaluation, plasma concentration by LC-MS; assay type: in vivo, cynomolgus monkeys; conditions: for half-life: cynomolgus monkey, male cynomolgus monkeys, subcutaneously (SC), 0.2 mg/kg, plasma; for half-lives: cynomolgus monkeys, administered subcutaneously
Protocol: The test animals were male cynomolgus monkeys. Two animals were used for each compound. The compounds were administered subcutaneously at a dose of 0.2 mg/kg. Blood samples were collected via intravenous sampling prior to administration (0 h) and at 1 h, 2 h, 3 h, 4 h, 8 h, 12 h, 18 h, 24 h, 48 h, 96 h, 144 h, and 168 h after administration. Plasma samples were obtained by centrifugation. The plasma concentrations of the compounds were respectively determined by liquid chromatography - mass spectrometry (LC-MS).

GCG-R = molecular target: T3, GCG-R (Homo sapiens, UniProt P47871); experiment: GCG activity test (cAMP, chemiluminescence); assay type: cell-based
T3 construct: expressed in transfected cells; host or cells: CHO-K1
T3 sequence (P47871 26-477, species assumed): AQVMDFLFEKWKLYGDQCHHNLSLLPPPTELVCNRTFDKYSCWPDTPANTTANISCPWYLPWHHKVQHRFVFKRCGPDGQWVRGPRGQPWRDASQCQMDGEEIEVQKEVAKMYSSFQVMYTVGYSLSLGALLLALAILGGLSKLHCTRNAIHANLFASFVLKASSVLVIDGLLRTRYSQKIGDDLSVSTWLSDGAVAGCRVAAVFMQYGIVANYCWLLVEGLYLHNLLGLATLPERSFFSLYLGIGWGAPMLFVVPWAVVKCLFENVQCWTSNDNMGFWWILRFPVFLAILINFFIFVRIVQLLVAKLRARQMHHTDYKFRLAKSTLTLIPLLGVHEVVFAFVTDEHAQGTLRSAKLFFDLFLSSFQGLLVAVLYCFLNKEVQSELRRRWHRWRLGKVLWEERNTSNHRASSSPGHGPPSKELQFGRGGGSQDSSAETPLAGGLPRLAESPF
Protocol: as §1, with “GCG-R” for “GIPR”, “GCG” for “GIP”, “internationally.” for “internationally. A CHO-K1 cell line stably expressing GIPR was used. The stable cells were stimulated with agonists at different concentrations, and the relative luminescence units after stimulation at each concentration were measured to calculate the EC50 value of the agonist.”
A CHO-K1 cell line stably expressing GCG-R was used. The stable cells were stimulated with agonists at different concentrations, and the relative luminescence units after stimulation at each concentration were measured to calculate the EC50 value of the agonist.

Compound | pEC50 (GIPR) | pEC50 (GLP-1R) | half-life [1] [h] | half-lives [1] | pEC50 (GCG-R)
CC[C@H](C)[C@H](NC(=O)[C@H](Cc1ccccc1)NC(=O)[C@H](C)NC(=O)C(C)(C)NC(=O)[C@H](CCC(N)=O)NC(=O)[C@H](C)NC(=O)[C@H](CCCCNC(=O)COCCOCCNC(=O)CCC[C@H](NC(=O)CCCCCCCCCCCCCCCCCCC(=O)O)C(=O)O)NC(=O)[C@H](CCCCN)NC(=O)[C@H](CC(=O)O)NC(=O)[C@H](CC(C)C)NC(=O)C(C)(CC(C)C)NC(=O)[C@@H](NC(=O)[C@H](CO)NC(=O)[C@H](Cc1ccc(O)cc1)NC(=O)[C@H](CC(=O)O)NC(=O)[C@H](CO)NC(=O)[C@@H](NC(=O)C(C)(Cc1ccccc1F)NC(=O)[C@@H](NC(=O)CNC(=O)[C@H](CCC(N)=O)NC(=O)C(C)(C)NC(=O)[C@@H](N)Cc1ccc(O)cc1)[C@@H](C)O)[C@@H](C)O)[C@@H](C)CC)C(=O)N[C@@H](CCC(=O)O)C(=O)N[C@@H](Cc1ccc(O)cc1)C(=O)N[C@@H](CC(C)C)C(=O)N[C@@H](CC(C)C)C(=O)N[C@@H](CCC(=O)O)C(=O)NCCCCC(=O)N1CCC[C@H]1C(=O)N[C@@H](CO)C(=O)N[C@@H](CO)C(=O)NCC(=O)N[C@@H](C)C(=O)N1CCC[C@H]1C(=O)N1CCC[C@H]1C(=O)N1CCC[C@H]1C(=O)N[C@@H](CO)C(N)=O (stereo partly shown) [Compound 6] | 10.73 | 10.43 | 115 | greater than 100 hours | 9.85
CC[C@H](C)[C@H](NC(=O)[C@H](Cc1ccccc1)NC(=O)[C@H](C)NC(=O)C(C)(C)NC(=O)[C@H](CCC(N)=O)NC(=O)[C@H](C)NC(=O)[C@H](CCCCNC(=O)COCCOCCOCCOCCOCCNC(=O)CC[C@H](NC(=O)CCCCCCCCCCCCCCCCCCC(=O)O)C(=O)O)NC(=O)[C@H](CCCCN)NC(=O)[C@H](CC(=O)O)NC(=O)[C@H](CC(C)C)NC(=O)C(C)(CC(C)C)NC(=O)[C@@H](NC(=O)[C@H](CO)NC(=O)[C@H](Cc1ccc(O)cc1)NC(=O)[C@H](CC(=O)O)NC(=O)[C@H](CO)NC(=O)[C@@H](NC(=O)C(C)(Cc1ccccc1)NC(=O)[C@@H](NC(=O)CNC(=O)[C@H](CCC(N)=O)NC(=O)C(C)(C)NC(=O)[C@@H](N)Cc1ccc(O)cc1)[C@@H](C)O)[C@@H](C)O)[C@@H](C)CC)C(=O)N[C@@H](CCC(=O)O)C(=O)N[C@@H](Cc1ccc(O)cc1)C(=O)N[C@@H](CC(C)C)C(=O)N[C@@H](CC(C)C)C(=O)N[C@@H](CCC(=O)O)C(=O)NCCCCC(=O)N1CCC[C@H]1C(=O)N[C@@H](CO)C(=O)N[C@@H](CO)C(=O)NCC(=O)N[C@@H](C)C(=O)N1CCC[C@H]1C(=O)N1CCC[C@H]1C(=O)N1CCC[C@H]1C(=O)N[C@@H](CO)C(N)=O (stereo partly shown) [Compound 10] | 10.59 | 10.31 | – | – | 9.52
CC[C@H](C)[C@H](NC(=O)[C@H](Cc1ccccc1)NC(=O)[C@H](C)NC(=O)C(C)(C)NC(=O)[C@H](CCC(N)=O)NC(=O)[C@H](C)NC(=O)[C@H](CCCCNC(=O)COCCOCCOCCOCCOCCNC(=O)CC[C@H](NC(=O)CCCCCCCCCCCCCCCCCCC(=O)O)C(=O)O)NC(=O)[C@H](CCCCN)NC(=O)[C@H](CC(=O)O)NC(=O)[C@H](CC(C)C)NC(=O)C(C)(CC(C)C)NC(=O)[C@@H](NC(=O)[C@H](CO)NC(=O)[C@H](Cc1ccc(O)cc1)NC(=O)[C@H](CC(=O)O)NC(=O)[C@H](CO)NC(=O)[C@@H](NC(=O)C(C)(Cc1ccccc1F)NC(=O)[C@@H](NC(=O)CNC(=O)[C@H](CCC(N)=O)NC(=O)C(C)(C)NC(=O)[C@@H](N)Cc1ccc(O)cc1)[C@@H](C)O)[C@@H](C)O)[C@@H](C)CC)C(=O)N[C@@H](CCC(=O)O)C(=O)N[C@@H](Cc1ccc(O)cc1)C(=O)N[C@@H](CC(C)C)C(=O)N[C@@H](CC(C)C)C(=O)N[C@@H](CCC(=O)O)C(=O)NCCCCC(=O)N1CCC[C@H]1C(=O)N[C@@H](CO)C(=O)N[C@@H](CO)C(=O)NCC(=O)N[C@@H](C)C(=O)N1CCC[C@H]1C(=O)N1CCC[C@H]1C(=O)N1CCC[C@H]1C(=O)N[C@@H](CO)C(N)=O (stereo partly shown) [Compound 12] | 10.61 | 10.33 | – | – | 9.78
CC[C@H](C)[C@H](NC(=O)[C@H](Cc1ccccc1)NC(=O)[C@H](C)NC(=O)C(C)(C)NC(=O)[C@H](CCC(N)=O)NC(=O)[C@H](C)NC(=O)[C@H](CCCCNC(=O)COCCOCCNC(=O)CCC[C@H](NC(=O)CCCCCCCCCCCCCCCCCCC(=O)O)C(=O)O)NC(=O)[C@H](CCCCN)NC(=O)[C@H](CC(=O)O)NC(=O)[C@H](CC(C)C)NC(=O)C(C)(CC(C)C)NC(=O)[C@@H](NC(=O)[C@H](CO)NC(=O)[C@H](Cc1ccc(O)cc1)NC(=O)[C@H](CC(=O)O)NC(=O)[C@H](CO)NC(=O)[C@@H](NC(=O)C(C)(Cc1ccccc1)NC(=O)[C@@H](NC(=O)CNC(=O)[C@H](CCC(N)=O)NC(=O)C(C)(C)NC(=O)[C@@H](N)Cc1ccc(O)cc1)[C@@H](C)O)[C@@H](C)O)[C@@H](C)CC)C(=O)N[C@@H](CCC(=O)O)C(=O)N[C@@H](Cc1ccc(O)cc1)C(=O)N[C@@H](CC(C)C)C(=O)N[C@@H](CC(C)C)C(=O)N[C@@H](CCC(=O)O)C(=O)NCCCCC(=O)N1CCC[C@H]1C(=O)N[C@@H](CO)C(=O)N[C@@H](CO)C(=O)NCC(=O)N[C@@H](C)C(=O)N1CCC[C@H]1C(=O)N1CCC[C@H]1C(=O)N1CCC[C@H]1C(=O)N[C@@H](CO)C(N)=O (stereo partly shown) [Compound 2] | 10.74 | 10.39 | 108 | greater than 100 hours | 9.61
